This note sets out measurements from PMC5085765, “Discovery of Potent Carbonic Anhydrase and Acetylcholinesterase Inhibitors: 2-Aminoindan β-Lactam Derivatives” (International Journal of Molecular Sciences, 2016).

One assay concerns the target T1, hCA I (Homo sapiens, UniProt P00915).
T1 construct: from tissue; host or cells: human erythrocytes
The assay can be described thus: hCA I inhibition, esterase assay with p-nitrophenylacetate as substrate. The format is biochemical. The following applies: NPA substrate; for Ki: Lineweaver-Burk plots; for IC50: purified from human erythrocytes. As to the method:
(§1) Erythrocytes were obtained from the Research Hospital at Atatürk University. The red cells were haemolysed with ice-cold water after washing with 0.9% NaCl. The hemolysate was applied to the prepared Sepharose-4B-tyrosine-sulfanylamide affinity gel. Both CA isoenzymes were purified by Sepharose-4B-L-tyrosine-sulfanilamide affinity chromatography in a single step [58, 59, 60]. Sepharose-4B-L-tyrosine-sulfanilamide was prepared according to a previous method. Thus, homogenate solution acidity was adjusted and supernatant was transferred to the previously prepared Sepharose-4B-L-tyrosine-sulphanilamide affinity column. The proteins flow in the column eluates was spectrophotometrically determined at 280 nm. All purification steps were performed at 4 °C. Protein quantity was determined at 595 nm according to the Bradford method. Bovine serum albumin was used as the standard protein [64, 65, 66]. To monitor purification of both isoenzymes, sodium dodecyl sulphate-polyacrylamide gel electrophoresis (SDS-PAGE) was used according to the procedure of Laemmli. In this application, the imaging method was performed in 10% and 3% acrylamide for the running and the stacking gel, respectively, with 0.1% SDS [68, 69, 70].
(§2) Enzyme activity was determined hydrolysis of p-nitrophenylacetate (PNA) to p-nitrophenolate at 348 nm according to the method of Verpoorte et al. and described previously. The inhibitory effects of β-lactam derivatives 2a–k were examined. To obtain the half maximal inhibitory concentration (IC50) values, CA I, and II activity was measured in the presence of β-lactam derivatives at different cuvette concentrations. Activity (%)-[β-lactam] graph was drawn for each of the β-lactam derivatives 2a–k. To determine Ki values, three different β-lactam derivative concentrations were tested. In these experiments, different substrate (PNA) concentrations were used and Lineweaver-Burk curves were drawn as previously described.

The target in another assay is T2, hCA II (Homo sapiens, UniProt P00918).
T2 construct: from tissue; host or cells: human erythrocytes
In words: hCA II inhibition, esterase assay with p-nitrophenylacetate as substrate. The format is biochemical. The following applies: NPA substrate; for Ki: Lineweaver-Burk plots; for IC50: purified from human erythrocytes. The procedure:
as §1, §2

The term Ki denotes the equilibrium dissociation constant of an inhibitor or competing ligand from its target. By IC50 is commonly meant the midpoint of a concentration-inhibition curve. Lower therefore signals inhibition by little substance.

T1 sequence (P00915 whole entry): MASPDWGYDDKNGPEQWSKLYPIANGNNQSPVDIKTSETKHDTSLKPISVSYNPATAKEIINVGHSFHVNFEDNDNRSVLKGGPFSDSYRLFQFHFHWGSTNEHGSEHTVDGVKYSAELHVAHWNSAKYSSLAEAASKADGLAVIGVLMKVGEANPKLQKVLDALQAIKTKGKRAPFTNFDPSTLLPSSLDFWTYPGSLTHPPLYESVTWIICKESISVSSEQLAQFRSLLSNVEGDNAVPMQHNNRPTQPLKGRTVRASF

On hCA I, `CC(=O)O[C@@H]1C(=O)N(C2Cc3ccccc3C2)[C@@H]1c1ccccc1[N+](=O)[O-]` (relative stereo) [Compound 2j, (3S*,4R*)-1-(2,3-Dihydro-1H-inden-2-yl)-2-(2-nitrophenyl)-4-oxoazetidin-3-yl acetate] gave a Ki of 1.09 ± 0.136 nM and an IC50 of 4.81 nM. On hCA II, this compound came in with a Ki of 2.88 ± 1.17 nM and an IC50 of 5.02 nM.

For the compound `CC(=O)O[C@@H]1C(=O)N(C2Cc3ccccc3C2)[C@@H]1c1ccccc1` (relative stereo) [Compound 2a, (3S*,4R*)-1-(2,3-Dihydro-1H-inden-2-yl)-2-oxo-4-phenylazetidin-3-yl acetate], on hCA I, affinity was put at a Ki of 0.44 ± 0.115 nM and the IC50 came out at 0.612 nM. Besides, on hCA II, the Ki came out at 3.54 ± 0.405 nM and half-maximal inhibition (IC50) required 5.21 nM.

On hCA I, `CC(=O)O[C@@H]1C(=O)N(C2Cc3ccccc3C2)[C@@H]1c1ccccc1Br` (relative stereo) [Compound 2h, (3S*,4R*)-2-(2-Bromophenyl)-1-(2,3-dihydro-1H-inden-2-yl)-4-oxoazetidin-3-yl acetate] showed a Ki of 0.91 ± 0.143 nM and an IC50 of 2.65 nM. At hCA II, this compound registered a Ki of 2.19 ± 0.921 nM and an IC50 of 5.21 nM.

In the case of `CC(=O)OC1C(=O)N(C2Cc3ccccc3C2)C1c1ccc(Br)cc1` (stereo not drawn) [Compound 2ı, (3S*,4R*)-2-(4-Bromophenyl)-1-(2,3-dihydro-1H-inden-2-yl)-4-oxoazetidin-3-yl acetate], on hCA I, the Ki is 0.97 ± 0.245 nM and the IC50 was found to be 2.55 nM. At hCA II, the affinity corresponds to a Ki of 0.93 ± 0.295 nM and inhibition was half-maximal at 4.03 nM (IC50).

Turning to `CC(=O)O[C@@H]1C(=O)N(C2Cc3ccccc3C2)[C@@H]1c1cccc(C)c1` (relative stereo) [Compound 2d, (3S*,4R*)-1-(2,3-Dihydro-1H-inden-2-yl)-2-oxo-4-m-tolylazetidin-3-yl acetate], the values for the Ki on hCA I and at hCA II were 1.49 ± 0.29 nM and 3.26 ± 0.708 nM, respectively. The figures for the IC50 on hCA I and against hCA II were 0.231 nM and 4.18 nM, respectively.

Consider `CC(=O)O[C@@H]1C(=O)N(C2Cc3ccccc3C2)[C@@H]1c1ccc(F)cc1` (relative stereo) [Compound 2k, (3S*,4R*)-1-(2,3-Dihydro-1H-inden-2-yl)-2-(4-fluorophenyl)-4-oxoazetidin-3-yl acetate], for which, at hCA I, affinity was put at a Ki of 0.94 ± 0.43 nM and the IC50 is 2.5 nM. On hCA II, the Ki worked out at 1.34 ± 0.539 nM and the IC50 is 6.86 nM.

Turning to `CC(=O)O[C@@H]1C(=O)N(C2Cc3ccccc3C2)[C@@H]1c1cccc(Cl)c1` (relative stereo) [Compound 2e, (3S*,4R*)-2-(3-Chlorophenyl)-1-(2,3-dihydro-1H-inden-2-yl)-4-oxoazetidin-3-yl acetate], on hCA I, the Ki was determined as 6.29 ± 2.07 nM and the IC50 stood at 3.98 nM. Also, on hCA II, affinity was put at a Ki of 8.34 ± 3.53 nM and 5.83 nM corresponded to half-maximal inhibition (IC50).

With `COc1cccc([C@@H]2[C@H](OC(C)=O)C(=O)N2C2Cc3ccccc3C2)c1` (relative stereo) [Compound 2b, (3S*,4R*)-1-(2,3-Dihydro-1H-inden-2-yl)-2-(3-methoxyphenyl)-4-oxoazetidin-3-yl acetate], on hCA I, the Ki came out at 1.41 ± 0.547 nM and the IC50 worked out at 2.3 nM. At hCA II, the Ki worked out at 3.15 ± 1.14 nM and the concentration for half-maximal inhibition (IC50) turned out to be 6.42 nM.

At hCA I, `CC(=O)O[C@@H]1C(=O)N(C2Cc3ccccc3C2)[C@@H]1c1ccc(Cl)c(Cl)c1` (relative stereo) [Compound 2f, (3S*,4R*)-2-(3,4-Dichlorophenyl)-1-(2,3-dihydro-1H-inden-2-yl)-4-oxoazetidin-3-yl acetate] registered a Ki of 1.16 ± 0.514 nM and an IC50 of 1.63 nM. On hCA II, the affinity, expressed as Ki, was 1.5 ± 0.421 nM and the IC50 came to 5.97 nM.

On hCA I, `CC(=O)O[C@@H]1C(=O)N(C2Cc3ccccc3C2)[C@@H]1c1cccc(Br)c1` (relative stereo) [Compound 2g, (3S*,4R*)-2-(3-Bromophenyl)-1-(2,3-dihydro-1H-inden-2-yl)-4-oxoazetidin-3-yl acetate] yielded a Ki of 0.35 ± 0.105 nM and an IC50 of 0.652 nM. Also, at hCA II, the affinity corresponds to a Ki of 3.39 ± 1.16 nM and the IC50 came to 3.81 nM.

For `CC(=O)O[C@@H]1C(=O)N(C2Cc3ccccc3C2)[C@@H]1c1ccc(C)cc1` (relative stereo) [Compound 2c, (3S*,4R*)-1-(2,3-Dihydro-1H-inden-2-yl)-2-oxo-4-p-tolylazetidin-3-yl acetate], at hCA I, the affinity corresponds to a Ki of 1.5 ± 0.657 nM and the IC50 amounted to 2.11 nM. At hCA II, this compound returned a Ki of 2.96 ± 0.157 nM and an IC50 of 3.71 nM.
